# According to patent US9108930B2, “N1- and N2-carbamoyl-1,2,3-triazole serine hydrolase inhibitors and methods” (The Scripps Research Institute, priority 2011, dated 2015):
# Experiments:
# [1] = system: peritoneal macrophages; experiment: Metabolomics of thioglycolate-elicited peritoneal macrophages from treated mice; assay type: in vivo, mouse; settings: 5 mg/kg, 4 hours, i.p.
# Experimental: Mice were treated with KT109, KT172 or KT195 (5 mg/kg, 4 hours, i.p.) to evaluate whether blockade of DAGLB in peritoneal macrophages would result in metabolic effects similar to those observed in Neuro2A cells. Thioglycolate-elicited peritoneal macrophages were harvested, and the cells were subjected to metabolomics studies. […] All the metabolic effects observed in pharmacological studies were recapitulated using Daglb^−/− mice, providing genetic evidence that the changes were indeed DAGLB-mediated.
# (§1) Metabolites were quantified by either selected reaction monitoring (SRM) of each metabolite using an Agilent G6410B Triple-Quad instrument or untargeted metabolomic analysis (substrate assays) using an Agilent 1100 series LC-MSD SL instrument. […] For analysis of diacylglycerols (DAGs) a Luna C5 column (50 mm×4.60 mm with 5 μm diameter particles) from Phenomenex was used. Mobile phase A was made of 95:5 v/v H2O:MeOH, and mobile phase B was composed of 60:35:5 v/v/v i-PrOH:MeOH:H2O. Ammonium hydroxide (0.1%) and formic acid (0.1%) was included to assist in ion formation in negative and positive ionization modes, respectively. For analysis of DAGs, 5 mM ammonium formate was also used in addition to 0.1% formic acid to assist in positive ionization and NH4+ adduct formation. For metabolite measurements, cells were resuspended in 1 mL of a 1% NaCl solution and added to 3 mL of a 2:1 v/v CHCl3:MeOH doped with 1 nmol of the following internal standards: d5-2-arachidonoylglycerol (2-AG), d8-arachidonic acid (AA), and d8-1-stearoyl-2-arachidonoylglycerol (SAG). The mixture was vortexed and then centrifuged (1,400×g, 3 min). The organic layer was removed, CHCl3 was added until the final volume was again 4 ml, and the extraction was repeated. The combined organic extracts were dried under a stream of N2 and resolubilized in 2:1 v/v CHCl3:MeOH (120 μl). 30 μL of resolubilized lipids were injected for positive mode (MAGs and DAGs) and negative mode (free fatty acids and eicosanoids) measurements.
# (§2) The following parameters (MS) were used to measure the indicated metabolites by SRM (precursor ion, product ion, collision energy in V, polarity): C20:4 MAG or 2-AG (379, 287, 8, positive), d5-2-AG (384, 287, 5, positive), C18:0/C20:4 DAG or SAG (662, 341, 15, positive), d8-SAG (671, 671, 0, positive), C18:1/C20:4 DAG (660, 341, 15, positive), C16:0/C20:4 DAG (634, 341, 15, positive), C14:0/C20:4 DAG (606, 341, 15, positive), arachidonic acid or AA (303, 303, 0, negative), d8-AA (311, 267, 5, negative), PGE2 (351, 271, 10, negative), and PGD2 (351, 271, 10, negative). MS analysis was performed with an electrospray ionization source with the following parameters: drying gas temperature=350° C., drying gas flow rate=11 L/min, and the nebulizer pressure=35 psi. Prostaglandin SRM parameters were based on previously reported methods and transitions. Metabolites targeted by SRM were quantified by measuring the area under the peak in comparison with the internal standards. For metabolites where isotopic internal standards were not used, external standard curves with the internal standard versus metabolite standard were generated. In DAGL substrate assays, formation of the hydrolysis product, 2-AG was followed by measuring the area under the peak for 2-AG in comparison to the 1-monopentadecanoin standard ion.
# [2] = system: peritoneal macrophages of Pla2g4a-/- mice; experiment: LPS-stimulated TNF-alpha release, macrophages from treated Pla2g4a-/- mice; assay type: in vivo, mouse; settings: 5 mg/kg, 4 hours, i.p.
# Experimental: Next, the cytokine profiles from a Pla2g4a^+/+ background were compared with the profiles from Pla2g4a^−/− mice treated with KT109 or KT195 (5 mg/kg, 4 hours, i.p.). […] However, no significant differences in LPS-stimulated TNF-alpha levels were observed from Pla2g4a^+/+ versus […].
# [3] = target: T1, DAGLB (Mus musculus, UniProt Q91WC9); experiment: ABPP-MudPIT of peritoneal macrophages from treated mice; settings: in vivo
# T1 sequence (Q91WC9 1-669): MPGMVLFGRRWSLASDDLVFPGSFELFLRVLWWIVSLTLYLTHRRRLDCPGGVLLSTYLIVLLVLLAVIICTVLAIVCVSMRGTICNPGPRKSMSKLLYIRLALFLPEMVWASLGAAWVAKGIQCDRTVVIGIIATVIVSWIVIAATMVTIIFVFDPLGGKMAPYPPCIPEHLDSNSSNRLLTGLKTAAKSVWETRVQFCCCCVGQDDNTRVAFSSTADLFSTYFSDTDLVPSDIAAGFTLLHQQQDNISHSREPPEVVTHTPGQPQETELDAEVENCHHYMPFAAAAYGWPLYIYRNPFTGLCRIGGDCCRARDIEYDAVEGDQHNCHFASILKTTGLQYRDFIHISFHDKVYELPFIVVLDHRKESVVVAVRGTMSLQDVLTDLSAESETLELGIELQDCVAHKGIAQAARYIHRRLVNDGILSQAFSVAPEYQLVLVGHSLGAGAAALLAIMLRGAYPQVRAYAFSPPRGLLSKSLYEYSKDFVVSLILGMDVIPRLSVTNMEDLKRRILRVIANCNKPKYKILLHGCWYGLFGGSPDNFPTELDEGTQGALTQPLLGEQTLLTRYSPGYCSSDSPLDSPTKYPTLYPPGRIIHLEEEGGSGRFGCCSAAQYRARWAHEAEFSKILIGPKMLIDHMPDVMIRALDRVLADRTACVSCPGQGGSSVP
# [4] = target: T1, DAGLB; experiment: In vivo DAGLB inactivation in peritoneal macrophages, gel-based competitive ABPP using HT01; set-up: from tissue; host or cells: thioglycolate-elicited peritoneal macrophages of treated mice; settings: for dose (as low as) giving complete inactivation of DAGLB in peritoneal macrophages: about 4 hours, doses about 10 to about 0.1 mg/kg
# [5] = system: serine hydrolases in the peritoneal macrophage proteome; experiment: ABPP-MudPIT of peritoneal macrophages from treated mice, off-targets; settings: mouse, in vivo
# [6] = system: peritoneal macrophages of Pla2g4a-/- mice; experiment: Metabolomics of macrophages from treated Pla2g4a-/- mice; assay type: in vivo, mouse; settings: 5 mg/kg, 4 hours, i.p.
# Experimental: Pla2g4a^−/− mice were treated with KT109 or KT195 (5 mg/kg, 4 hours, i.p.), thioglycolate-elicited macrophages were harvested, and then the macrophages were subjected to metabolomics analysis. The cellular levels of PGE2 and PGD2 were measured.
# as §1
# as §2, with “For metabolites where isotopic internal standards were not used, external standard curves with the internal standard versus metabolite standard were generated. In DAGL substrate assays, formation of the hydrolysis product, 2-AG was followed by measuring the area under the peak for 2-AG in comparison to the 1-monopentadecanoin standard ion.” left out
Compound,change in 2-AG [1],"change in cellular AA, PGE2 and PGD2 [1]",effect on TNF-alpha levels upon LPS stimulation [2],DAGLB inhibition by spectral counting [3],"duration / time-course of DAGLB inhibition ([4]; 5 mg/kg, i.p., about 1 to 16 hours)",dose (as low as) giving complete inactivation of DAGLB in peritoneal macrophages ([4]; i.p.) [mg/kg],off-target activities [5],PGD2 level [6],change in PGE2 [6],change in SAG [1],increase of TNF-alpha levels upon LPS stimulation [2] [fold],"time to complete inhibition of DAGLB ([4]; 5 mg/kg, i.p.)","inhibition at 5 mg/kg ([4]; mouse, ip, read-out: persistent inhibition of DAGLB after 16 hours) [%]"
COc1ccc(-c2ccc(-c3cn(C(=O)N4CCCCC4c4ccccc4)nn3)cc2)cc1 (centres unmarked) [KT195],no observable changes,None of these effects were observed,no observable effects,no activity against DAGLB,no evidence of DAGLB inhibition during the entire time-course of treatment,> 10,also inhibited,remained undetectable,not observed,–,–,–,–
O=C(N1CCCCC1Cc1ccccc1)n1cc(-c2ccc(-c3ccccc3)cc2)nn1 (centres unmarked) [KT109],Dramatic decreases in 2-AG,significant decreases in cellular AA levels and a corresponding reduction in PGE2 and PGD2,–,confirmed inhibition of DAGLB,–,0.5,carboxylesterases (Ces3 and Ces2g),remained undetectable,significant decrease in PGE2,significant increases in SAG,2,within the first hour,~90
